From patent US9157904B2, “Wnt antagonists and methods of treatment and screening” (OncoMed Pharmaceuticals, Inc., priority 2010, dated 2015)

What was measured:
PN4 tumors = test: Flow cytometry for ESA and CD44 on treated PN4 tumors; type: in vivo, NOD/SCID mice; conditions: PN4 tumors harvested day 85, 5 tumors pooled; control antibody 12.7%
Method: Control and treated tumors from the OMP-PN4 xenograft study described above were harvested at the end of the study (day 85). The tumors were processed and dissociated into single cells. Single cell suspensions derived from 5 tumors of each treatment group were pooled, and the pooled samples were then incubated on ice for 30 min with antibodies that bind mouse cells selectively (α-mouse CD45-biotin 1:200 dilution and rat α-mouse H2Kd-biotin 1:100 dilution, BioLegend, San Diego, Calif.), followed by addition of streptavidin-labeled magnetic beads (Invitrogen, Carlsbad, Calif.). Mouse cells were removed with the aid of a magnet. For analysis of human cell surface markers, the single tumor cell suspension was stained with anti-ESA (Biomeda, Hayward, Calif.) and anti-CD44 (BD Biosciences, San Jose, Calif.) antibodies which were directly conjugated to fluorochromes. Dead cells were excluded by using the viability dye DAPI. Flow cytometry was performed using a FACS Aria instrument (Becton Dickinson, Franklin Lakes, N.J.). Side scatter and forward scatter profiles were used to eliminate cell clumps.

PN21 pancreatic tumors = test: In vivo limiting dilution assay of treated PN21 tumors; design: species or system NOD/SCID mice; conditions: day 72, L-Calc
Excerpt: As described above in Example 3, a limiting dilution assays was used to assess the effect of treatment with FZD8-Fc alone or in combination with gemcitabine on solid tumor cancer stem cells in the PN21 pancreatic tumor model.
Control and treated tumors from the PN21 xenograft study described above were harvested at the end of the study. The tumors were processed and dissociated into single cells. […] The human cells in the suspension were harvested, counted, and stained for cell surface markers and appropriate cell doses (30, 90, and 270 cells) in FACS buffer were mixed in a 1:1 mixture with Matrigel and injected subcutaneously in NOD/SCID mice (10 mice per cell dose per treatment group). […]
At the desired time point, the percentage of mice with detectable tumors was determined in all groups injected with treated tumor cells and compared to the percentage of mice with detectable tumors in control treated cells. For example, the number of mice injected with 125 control antibody-treated tumor cells that have detectable tumors is determined and compared to the number of mice injected with 125 FZD8-Fc treated tumor cells that have detectable tumors.
On day 72 after injection of the cells, tumor take rates in the various groups were determined and the cancer stem cell frequency was calculated using L-Calc™ software (StemCell Technologies Inc.; www.stemcell.com).

PN4 pancreatic tumors = test: In vivo limiting dilution assay of treated PN4 tumors; design: species or system NOD/SCID mice; conditions: day 75 after injection of 30, 90, 270 cells, control 7 out of 30
Excerpt: Limiting dilution assays (LDA) can be used to assess the effect of therapeutic agents on solid tumor cancer stem cells and on the tumorigenicity of a tumor comprising the cancer stem cells. Such assays can be used to determine the frequency of cancer stem cells in tumors from animals treated with the FZD8-Fc fusion protein or other agent and to compare that frequency to the frequency of cancer stem cells in tumors from control animals. Control and treated tumors from the PN4 xenograft study described above were harvested at the end of the study (day 85). The tumors were processed and dissociated into single cells. […] The human cells in the suspension were harvested, counted, and stained for cell surface markers and appropriate cell doses (30, 90, and 270 cells) in FACS buffer were mixed in a 1:1 mixture with Matrigel and injected subcutaneously in NOD/SCID mice (10 mice per cell dose per treatment group). […] At the desired time point, the percentage of mice with detectable tumors was determined in all groups injected with FZD8-Fc-treated tumor cells and compared to the percentage of mice with detectable tumors in the controls. For example, the number of mice injected with 125 control antibody-treated tumor cells that have detectable tumors is determined and compared to the number of mice injected with 125 FZD8-Fc treated tumor cells that have detectable tumors. […]

With `Nc1ccn([C@@H]2O[C@H](CO)[C@@H](O)C2(F)F)c(=O)n1` [gemcitabine, reference compound] the “bulk tumor population expressing both ESA and CD44 at high levels (double positive population)” value (PN4 tumors) was 13.9%, the “cancer stem cell frequency” value (PN21 pancreatic tumors) was “slightly increased” and the tumor take rate (PN4 pancreatic tumors) was 7 mice out of 30 mice.
